According to patent US20230135152A1 (ACURASTEM INCORPORATED, priority 2020, published 2023):

Experiments:
[1] = target: T1, PIKFYVE (Homo sapiens, UniProt Q9Y2I7); experiment: Cell-based Pikfyve inhibition activity assay (EEA1 staining, mean vesicle size in BJ fibroblast cells); settings: Table 4, 4 hours treatment, 3 μM Apilimod = 100% inhibition
Description: BJ fibroblast cells were obtained from American Type Cell Culture (ATCC, CRL-2522). The cells were maintained in DMEM (Genesee Scientific, 25-500) supplemented with 10% fetal bovine serum (Genesee Scientific, 25-514) and 1% penicillin-streptomycin (Genesee Scientific, 25-512) at 37° C. in the atmosphere 5% CO2. BJ fibroblasts were plated into black flat clear bottom 96-well plates (Grenier, 655090) at a density of 3×10^3 per well and were allowed to attach in culture for 8-10 hours before drug treatment. Drugs were tested at eleven doses separated by 3 fold from 0.03 nM to 3000 nM in triplicates for 4 hours at 37° C. After 4 hours, treatment media was aspirated and replaced with 4% Paraformaldehyde (Electron Microscopy Science, 15714-S) and cells were fixed at room temperature for 5 minutes. 4% PFA in wells were then discarded and replaced with a blocking buffer consisting of 1×PBS with 0.1% Tween (Sigma-Aldrich, P1754-500), 5% Donkey Serum (Jackson ImmunoResearch, 017-000-121), and 1% BSA (Caisson Labs, B005-50GM) and incubated at room temperature for 30 minutes. Blocking buffer was then discarded and replaced with a primary EEA1 antibody (Fisher Scientific, BD610457) in a 1:1000 dilution and incubated at 4° C. overnight. Following overnight incubation, plates were washed with 1×PBS three times and incubated with secondary antibody Donkey anti-Mouse IgG, Alexa Fluor 555 (Invitrogen, A31570) (1:1000 dilution) for 1 hour at room temperature in the dark. Subsequently cell plates were washed with 1×PBS three times and can be stored at 4° C. if not being proceeding with imaging procedure.
Images were acquired with 20× objective (ImageXpress MicroConfocal, Molecular Devices) creating z-series of 5 planes (5 steps, […]), 16 tiles per well. Images were then analyzed using a custom CellProfiler protocol to obtain mean vesicle size. The mean vesicle size from 16 images was used as the output for each well. The mean vesicle size from 0.5% DMSO treated condition was considered as having no Pikfyve inhibition activity and the 3 μM Apilimod treated condition was considered as having 100% inhibition activity. The mean vesicle size was converted to % inhibition activity and the data was fitted to a dose-response curve using log(inhibitor) vs normalized response-variable slope using GraphPad Prism.

[2] = target: T1, PIKFYVE; experiment: PIKFYVE assay (luciferase ADP-Glo kinase assay, Promega); type: biochemical
Description: The activity of Compounds 1-20 was measured using a PIKFYVE assay (luciferase ADP-Glo kinase assay available from Promega Corp. of Madison, Wis.).
The activity of Compounds 39-90 was also measured using a PIKFYVE assay (luciferase ADP-Glo kinase assay available from Promega Corp. of Madison, Wis.).
The activity of Compounds 93-347 was also measured using a PIKFYVE assay (luciferase ADP-Glo kinase assay available from Promega Corp. of Madison, Wis.).

T1 sequence (Q9Y2I7 whole entry): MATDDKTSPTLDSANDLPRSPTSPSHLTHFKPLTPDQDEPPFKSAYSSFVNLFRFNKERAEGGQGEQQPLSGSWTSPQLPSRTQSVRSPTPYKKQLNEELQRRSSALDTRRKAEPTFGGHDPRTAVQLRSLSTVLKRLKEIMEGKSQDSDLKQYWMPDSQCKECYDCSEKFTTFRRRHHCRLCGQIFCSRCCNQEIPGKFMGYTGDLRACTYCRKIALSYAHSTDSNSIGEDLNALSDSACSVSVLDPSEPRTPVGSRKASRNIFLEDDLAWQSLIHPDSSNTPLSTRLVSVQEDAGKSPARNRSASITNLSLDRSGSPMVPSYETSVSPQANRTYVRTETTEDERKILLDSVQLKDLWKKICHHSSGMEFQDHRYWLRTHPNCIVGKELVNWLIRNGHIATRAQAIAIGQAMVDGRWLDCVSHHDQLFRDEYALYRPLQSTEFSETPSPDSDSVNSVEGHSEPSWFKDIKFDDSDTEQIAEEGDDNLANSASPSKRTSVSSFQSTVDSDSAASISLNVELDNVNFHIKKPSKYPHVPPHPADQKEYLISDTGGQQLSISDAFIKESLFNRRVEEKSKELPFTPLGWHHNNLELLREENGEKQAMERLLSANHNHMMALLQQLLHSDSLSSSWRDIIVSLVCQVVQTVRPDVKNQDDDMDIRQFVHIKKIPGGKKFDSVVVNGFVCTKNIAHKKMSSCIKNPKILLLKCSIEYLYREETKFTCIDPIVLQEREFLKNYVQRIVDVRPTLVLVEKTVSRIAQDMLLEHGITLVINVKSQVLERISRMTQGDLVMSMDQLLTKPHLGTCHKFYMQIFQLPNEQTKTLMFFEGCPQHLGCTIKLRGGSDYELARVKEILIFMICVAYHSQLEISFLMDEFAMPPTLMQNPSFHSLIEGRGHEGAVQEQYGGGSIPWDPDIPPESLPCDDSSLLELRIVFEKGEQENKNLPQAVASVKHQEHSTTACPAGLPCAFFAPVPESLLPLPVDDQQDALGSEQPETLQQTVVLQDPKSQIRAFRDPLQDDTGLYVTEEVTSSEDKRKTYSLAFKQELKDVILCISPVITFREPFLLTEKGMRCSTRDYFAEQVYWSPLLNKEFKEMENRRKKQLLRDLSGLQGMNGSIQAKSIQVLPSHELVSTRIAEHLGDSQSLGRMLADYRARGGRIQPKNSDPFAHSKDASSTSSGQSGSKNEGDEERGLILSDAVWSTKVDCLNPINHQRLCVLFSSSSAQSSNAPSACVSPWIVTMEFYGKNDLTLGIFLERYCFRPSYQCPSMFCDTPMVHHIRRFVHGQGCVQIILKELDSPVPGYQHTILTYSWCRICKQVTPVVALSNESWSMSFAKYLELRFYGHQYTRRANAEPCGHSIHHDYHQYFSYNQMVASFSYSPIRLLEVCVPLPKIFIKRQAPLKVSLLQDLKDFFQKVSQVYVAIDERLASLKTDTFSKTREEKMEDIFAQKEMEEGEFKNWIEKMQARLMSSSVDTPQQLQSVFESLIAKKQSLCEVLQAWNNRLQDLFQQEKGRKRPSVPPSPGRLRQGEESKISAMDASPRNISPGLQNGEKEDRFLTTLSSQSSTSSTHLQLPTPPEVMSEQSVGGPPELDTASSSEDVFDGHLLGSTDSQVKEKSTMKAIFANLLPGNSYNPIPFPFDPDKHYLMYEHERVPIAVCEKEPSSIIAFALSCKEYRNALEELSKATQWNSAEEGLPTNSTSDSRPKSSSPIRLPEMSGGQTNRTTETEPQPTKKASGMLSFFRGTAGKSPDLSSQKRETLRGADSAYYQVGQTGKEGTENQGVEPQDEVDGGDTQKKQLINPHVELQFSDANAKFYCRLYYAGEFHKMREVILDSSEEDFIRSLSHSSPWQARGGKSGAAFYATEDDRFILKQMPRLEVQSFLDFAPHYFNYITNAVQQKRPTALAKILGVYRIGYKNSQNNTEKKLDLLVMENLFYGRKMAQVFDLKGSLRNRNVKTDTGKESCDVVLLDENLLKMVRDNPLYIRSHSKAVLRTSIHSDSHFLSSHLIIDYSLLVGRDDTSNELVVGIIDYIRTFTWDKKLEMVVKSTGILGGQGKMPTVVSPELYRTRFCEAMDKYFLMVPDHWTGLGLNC

Compound	EC50 [1] [nM]	IC50 ([2]; Table 2) [nM]	IC50 ([2]; Table 3) [nM]
Cc1cccc(-c2ccn(-c3cc(N4CCOCC4)nc(OC[C@H](O)c4ccccc4)n3)n2)c1 (single isomer, unassigned) [Compound 58]	20 to 100	< 5	
COC[C@@H](O)c1nc(N2CCOCC2)cc(-n2ccc(-c3cccc(C)c3)n2)n1 (single isomer, unassigned) [Compound 170]	100 to 500		3 to 10
CO[C@H](CO)c1nc(N2CCOCC2)cc(-n2nc(-c3ccccc3)cc2C)n1 (single isomer, unassigned) [Compound 205]	500 to 5000		10 to 100
CO[C@H](CO)c1nc(N2CCOCC2)cc(-n2nc(-c3cccc(C)c3)cc2C)n1 (single isomer, unassigned) [Compound 224]	100 to 500		3 to 10
CO[C@H](CO)c1nc(N2CCOCC2)cc(-n2ccc(-c3csc4ccccc34)n2)n1 (single isomer, unassigned) [Compound 258]	100 to 500		< 3
CO[C@@H](CO)c1nc(N2CCOCC2)cc(-n2ccc(-c3csc4ccccc34)n2)n1 (single isomer, unassigned) [Compound 259]	100 to 500		3 to 10
COC(CO)c1nc(N2CCOCC2)cc(-n2nc(-c3c[nH]c4ccccc34)cc2C)n1 (single isomer, unassigned) [Compound 260, 2-(4-(3-(1H-indol-3-yl)-5-methyl-1H-pyrazol-1-yl)-6-morpholinopyrimidin-2-yl)-2-methoxyethan-1-ol]	< 20		< 3
CO[C@@H](CO)c1nc(N2CCOCC2)cc(-n2nc(-c3c[nH]c4ccccc34)cc2C)n1 (single isomer, unassigned) [Compound 261]	< 20		< 3
CO[C@H](CO)c1nc(N2CCO[C@@H](C)C2)cc(-n2ccc(-c3cccc(C)c3)n2)n1 (single isomer, unassigned) [Compound 305]	500 to 5000		10 to 100
CO[C@@H](CO)c1nc(N2CCO[C@@H](C)C2)cc(-n2ccc(-c3cccc(C)c3)n2)n1 (single isomer, unassigned) [Compound 306]	> 5000		100 to 5000
CO[C@H](CO)c1nc(N2CCO[C@H](C)C2)cc(-n2ccc(-c3cccc(C)c3)n2)n1 (single isomer, unassigned) [Compound 307]	> 5000		10 to 100
CO[C@@H](CO)c1nc(N2CCO[C@H](C)C2)cc(-n2ccc(-c3cccc(C)c3)n2)n1 (single isomer, unassigned) [Compound 308]	500 to 5000		10 to 100
Cc1cccc(-c2ccn(-c3cc(N4CCOCC4)nc([C@@H](CO)OC(F)F)n3)n2)c1 (single isomer, unassigned) [Compound 309]	500 to 5000		3 to 10
Cc1cccc(-c2ccn(-c3cc(N4CCOCC4)nc([C@H](CO)OC(F)F)n3)n2)c1 (single isomer, unassigned) [Compound 310]	500 to 5000		10 to 100
CCO[C@H](CO)c1nc(N2CCOCC2)cc(-n2ccc(-c3cccc(C)c3)n2)n1 (single isomer, unassigned) [Compound 311]	100 to 500		3 to 10
CCO[C@@H](CO)c1nc(N2CCOCC2)cc(-n2ccc(-c3cccc(C)c3)n2)n1 (single isomer, unassigned) [Compound 312]	100 to 500		3 to 10
Cc1cccc(-c2cc([C@H](C)O)n(-c3cc(N4CCOCC4)nc(OCCc4cnn(C)c4)n3)n2)c1 (single isomer, unassigned) [Compound 313]	< 20		< 3
Cc1cccc(-c2cc([C@@H](C)O)n(-c3cc(N4CCOCC4)nc(OCCc4cnn(C)c4)n3)n2)c1 (single isomer, unassigned) [Compound 314]	< 20		< 3

Compound	EC50 [1] [nM]	IC50 ([2]; Table 2) [nM]	IC50 ([2]; Table 3) [nM]
C[C@@H](O)c1cccc(-c2ccn(-c3cc(N4CCOCC4)nc(OCCc4cnn(C)c4)n3)n2)c1 (single isomer, unassigned) [Compound 315]	< 20		< 3
C[C@H](O)c1cccc(-c2ccn(-c3cc(N4CCOCC4)nc(OCCc4cnn(C)c4)n3)n2)c1 (single isomer, unassigned) [Compound 316]	20 to 100		3 to 10
CO[C@H](CO)c1nc(N2CCOCC2)cc(-n2ccc(-c3c[nH]c4ccccc34)n2)n1 (single isomer, unassigned) [Compound 318]	< 20		< 3
CO[C@@H](CO)c1nc(N2CCOCC2)cc(-n2ccc(-c3c[nH]c4ccccc34)n2)n1 (single isomer, unassigned) [Compound 319]	< 20		< 3
CO[C@H](CO)c1nc(N2CCOCC2)cc(-n2ccc(-c3cn(C)c4ccccc34)n2)n1 (single isomer, unassigned) [Compound 320]	20 to 100		3 to 10
CO[C@@H](CO)c1nc(N2CCOCC2)cc(-n2ccc(-c3cn(C)c4ccccc34)n2)n1 (single isomer, unassigned) [Compound 321]	500 to 5000		3 to 10
CC[C@@H](OC)c1nc(N2CCOCC2)cc(-n2ccc(-c3cccc(C)c3)n2)n1 (single isomer, unassigned) [Compound 322]	500 to 5000		3 to 10
CC[C@H](OC)c1nc(N2CCOCC2)cc(-n2ccc(-c3cccc(C)c3)n2)n1 (single isomer, unassigned) [Compound 323]	500 to 5000		10 to 100
Cc1cccc(-c2ccn(-c3cc(N4CCOCC4)nc([C@@H]4COCCO4)n3)n2)c1 (single isomer, unassigned) [Compound 324]	500 to 5000		10 to 100
Cc1cccc(-c2ccn(-c3cc(N4CCOCC4)nc([C@H]4COCCO4)n3)n2)c1 (single isomer, unassigned) [Compound 325]	500 to 5000		10 to 100
Cc1cccc(-c2ccn(-c3cc(N4CCOCC4)nc([C@H]4CCCO4)n3)n2)c1 (single isomer, unassigned) [Compound 327]	500 to 5000		3 to 10
Cc1cccc(-c2ccn(-c3cc(N4CCOCC4)nc([C@@H]4CCCO4)n3)n2)c1 (single isomer, unassigned) [Compound 328]	> 5000		3 to 10
Cc1cccc(-c2ccn(-c3cc(N4CCOCC4)nc([C@H]4CCOC4)n3)n2)c1 (single isomer, unassigned) [Compound 329]	> 5000		3 to 10
Cc1cccc(-c2ccn(-c3cc(N4CCOCC4)nc([C@@H]4CCOC4)n3)n2)c1 (single isomer, unassigned) [Compound 330]	> 5000		3 to 10
CO[C@@H](C)c1cccc(-c2ccn(-c3cc(N4CCOCC4)nc(OCCc4cnn(C)c4)n3)n2)c1 (single isomer, unassigned) [Compound 341]	< 20		< 3
Cc1cc(-c2c[nH]c3ccccc23)nn1-c1cc(N2CCOCC2)nc(C2COCCO2)n1 (single isomer, unassigned) [Compound 344]	< 20		< 3
Cc1cc(-c2c[nH]c3ccccc23)nn1-c1cc(N2CCOCC2)nc(C2COCCO2)n1 (single isomer, unassigned) [Compound 345]	< 20		< 3
Cc1cccc(-c2ccn(-c3cc(N4CCOCC4)nc(CCc4ncccn4)n3)n2)c1 [Compound 43]	20 to 100	< 5	
